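Exposure lasted 48 hours, with cells grown in 96-well plates and compounds tested at five concentrations. At the GI50, growth is halved.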 Activity calls are given as the source filed them. No stated cut-off is given here; in the data, active = GI50 up to about 1.1 µM and inactive = higher.
Legend:
Assay in all cases: NCI-60 cell line screen, 48 h
SK-MEL-5 = tested on: SK-MEL-5
SF-268 = tested on: SF-268
ACHN = tested on: ACHN
SK-MEL-2 = tested on: SK-MEL-2
HCC 2998 = tested on: HCC 2998
NCI-H460 = tested on: NCI-H460
A549 = tested on: A549
SR = tested on: SR
U-251 = tested on: U-251
SN12C = tested on: SN12C
NCI-H23 = tested on: NCI-H23
CAKI-1 = tested on: CAKI-1
UACC-62 = tested on: UACC-62
HL-60 = tested on: HL-60
SF-539 = tested on: SF-539
RXF 393 = tested on: RXF 393
IGROV-1 = tested on: IGROV-1
M14 = tested on: M14
HCT-116 = tested on: HCT-116
KM12 = tested on: KM12

Cc1cc(=O)oc2cc(OS(C)(=O)=O)ccc12
GI50 (SK-MEL-5): > 100 µM (inactive) | GI50 (SF-268): > 100 µM (inactive) | GI50 (ACHN): > 100 µM (inactive) | GI50 (SK-MEL-2): > 100 µM (inactive) | GI50 (HCC 2998): > 100 µM (inactive) | GI50 (NCI-H460): > 100 µM (inactive) | GI50 (A549): > 100 µM (inactive) | GI50 (SR): > 100 µM (inactive) | GI50 (U-251): > 100 µM (inactive) | GI50 (SN12C): > 100 µM (inactive) | GI50 (NCI-H23): > 100 µM (inactive) | GI50 (CAKI-1): > 100 µM (inactive) | GI50 (UACC-62): > 100 µM (inactive) | GI50 (HL-60): > 100 µM (inactive) | GI50 (SF-539): > 100 µM (inactive) | GI50 (RXF 393): > 100 µM (inactive) | GI50 (IGROV-1): > 100 µM (inactive) | GI50 (M14): > 100 µM (inactive) | GI50 (HCT-116): > 100 µM (inactive)

CCC(=O)NC(Nc1cccc(F)c1)(C(F)(F)F)C(F)(F)F
GI50 (KM12): > 100 µM (inactive) | GI50 (SK-MEL-5): 78.7 µM (inactive) | GI50 (SF-268): > 100 µM (inactive) | GI50 (ACHN): > 100 µM (inactive) | GI50 (SK-MEL-2): > 100 µM (inactive) | GI50 (HCC 2998): > 100 µM (inactive) | GI50 (NCI-H460): > 100 µM (inactive) | GI50 (A549): > 100 µM (inactive) | GI50 (SR): > 100 µM (inactive) | GI50 (U-251): 90.6 µM (inactive) | GI50 (SN12C): 37.7 µM (inactive) | GI50 (NCI-H23): > 100 µM (inactive) | GI50 (CAKI-1): 10.7 µM (inactive) | GI50 (UACC-62): > 100 µM (inactive) | GI50 (HL-60): 86.9 µM (inactive) | GI50 (SF-539): > 100 µM (inactive) | GI50 (RXF 393): > 100 µM (inactive) | GI50 (IGROV-1): > 100 µM (inactive) | GI50 (M14): > 100 µM (inactive) | GI50 (HCT-116): > 100 µM (inactive)

Cc1ccc(OCC2OC(n3cnc4c(Cl)nc(N)nc43)CC2Oc2ccc(C)cc2)cc1 (centres undefined)
GI50 (KM12): > 51.8 µM (inactive) | GI50 (SK-MEL-5): 30.9 µM (inactive) | GI50 (SF-268): 41.6 µM (inactive) | GI50 (ACHN): 15.6 µM (inactive) | GI50 (SK-MEL-2): > 38.1 µM (inactive) | GI50 (HCC 2998): 24.4 µM (inactive) | GI50 (NCI-H460): 40.6 µM (inactive) | GI50 (A549): 6.73 µM (inactive) | GI50 (SR): 36 µM (inactive) | GI50 (U-251): > 55.6 µM (inactive) | GI50 (SN12C): 10.4 µM (inactive) | GI50 (NCI-H23): 19.2 µM (inactive) | GI50 (CAKI-1): 1.76 µM (inactive) | GI50 (UACC-62): > 63.5 µM (inactive) | GI50 (HL-60): 13.9 µM (inactive) | GI50 (SF-539): > 55.7 µM (inactive) | GI50 (RXF 393): 39.9 µM (inactive) | GI50 (IGROV-1): 19.4 µM (inactive) | GI50 (M14): 9.27 µM (inactive) | GI50 (HCT-116): 47.5 µM (inactive)

COC(=O)C(F)C(Br)C(=O)OC (centres undefined)
GI50 (KM12): 20.3 µM (inactive) | GI50 (SK-MEL-5): 18.5 µM (inactive) | GI50 (SF-268): 7.71 µM (inactive) | GI50 (ACHN): 1.86 µM (inactive) | GI50 (SK-MEL-2): 16.1 µM (inactive) | GI50 (HCC 2998): 8 µM (inactive) | GI50 (NCI-H460): 18.9 µM (inactive) | GI50 (A549): 19.7 µM (inactive) | GI50 (SR): 1.37 µM (inactive) | GI50 (U-251): 3.05 µM (inactive) | GI50 (SN12C): 16.9 µM (inactive) | GI50 (NCI-H23): 6.03 µM (inactive) | GI50 (CAKI-1): 2.35 µM (inactive) | GI50 (UACC-62): 15.9 µM (inactive) | GI50 (HL-60): 1.95 µM (inactive) | GI50 (SF-539): 5.48 µM (inactive) | GI50 (RXF 393): 2.18 µM (inactive) | GI50 (IGROV-1): 2.69 µM (inactive) | GI50 (M14): 5.79 µM (inactive) | GI50 (HCT-116): 2.74 µM (inactive)

CCOc1ccc2c(C)cc(=O)oc2c1
GI50 (KM12): > 100 µM (inactive) | GI50 (SK-MEL-5): > 100 µM (inactive) | GI50 (SF-268): > 100 µM (inactive) | GI50 (ACHN): > 100 µM (inactive) | GI50 (SK-MEL-2): > 100 µM (inactive) | GI50 (HCC 2998): > 100 µM (inactive) | GI50 (NCI-H460): > 100 µM (inactive) | GI50 (A549): > 100 µM (inactive) | GI50 (SR): > 100 µM (inactive) | GI50 (U-251): > 100 µM (inactive) | GI50 (SN12C): > 100 µM (inactive) | GI50 (NCI-H23): > 100 µM (inactive) | GI50 (CAKI-1): > 100 µM (inactive) | GI50 (UACC-62): > 100 µM (inactive) | GI50 (HL-60): > 100 µM (inactive) | GI50 (SF-539): > 100 µM (inactive) | GI50 (RXF 393): > 100 µM (inactive) | GI50 (IGROV-1): > 100 µM (inactive) | GI50 (M14): > 100 µM (inactive) | GI50 (HCT-116): > 100 µM (inactive)

COc1cc2cc(C(=O)N3CC(CCl)c4ccc(NO)cc43)[nH]c2c(OC)c1OC (centres undefined)
GI50 (KM12): 0.155 µM (active) | GI50 (SK-MEL-5): 0.0984 µM (active) | GI50 (SF-268): 0.101 µM (active) | GI50 (ACHN): 0.091 µM (active) | GI50 (SK-MEL-2): 0.126 µM (active) | GI50 (HCC 2998): 0.0977 µM (active) | GI50 (NCI-H460): 0.0446 µM (active) | GI50 (A549): 0.0897 µM (active) | GI50 (SR): 0.0577 µM (active) | GI50 (U-251): 0.0927 µM (active) | GI50 (SN12C): 0.286 µM (active) | GI50 (NCI-H23): 0.0693 µM (active) | GI50 (CAKI-1): 0.227 µM (active) | GI50 (UACC-62): 0.0991 µM (active) | GI50 (HL-60): 0.126 µM (active) | GI50 (SF-539): 0.353 µM (active) | GI50 (RXF 393): 0.114 µM (active) | GI50 (IGROV-1): 0.0968 µM (active) | GI50 (M14): 0.188 µM (active) | GI50 (HCT-116): 0.253 µM (active)

CC(C)NC(=O)OCc1c(COC(=O)NC(C)C)c(-c2ccc[n+](COC(=O)C3CCCCC3)c2)n2c1CCC2
GI50 (KM12): > 100 µM (inactive) | GI50 (SK-MEL-5): 70.8 µM (inactive) | GI50 (SF-268): 42.6 µM (inactive) | GI50 (ACHN): 27.3 µM (inactive) | GI50 (SK-MEL-2): 44.6 µM (inactive) | GI50 (HCC 2998): > 100 µM (inactive) | GI50 (NCI-H460): 27.9 µM (inactive) | GI50 (A549): 82 µM (inactive) | GI50 (SR): > 100 µM (inactive) | GI50 (U-251): 55.6 µM (inactive) | GI50 (SN12C): 47.6 µM (inactive) | GI50 (NCI-H23): 28.6 µM (inactive) | GI50 (CAKI-1): 20.7 µM (inactive) | GI50 (UACC-62): 24.8 µM (inactive) | GI50 (HL-60): > 100 µM (inactive) | GI50 (SF-539): 35.8 µM (inactive) | GI50 (RXF 393): 38.9 µM (inactive) | GI50 (IGROV-1): > 100 µM (inactive) | GI50 (M14): 56 µM (inactive) | GI50 (HCT-116): 56.4 µM (inactive)

From ChEMBL document CHEMBL1201862, “PubChem BioAssay data set” (2004)
